Test results as given in patent US9532957B2, “Method of stabilizing reduced coenzyme Q10” (Kaneka Corporation, priority 2001, dated 2017).

Experiments:
[1] = Oxidation stability of reduced coenzyme Q10 ethanol solution with L-ascorbic acid, stirred in air at 50° C.; type: physicochemical; details: 1 part L-ascorbic acid per 100 parts solvent, after 50 hours
Description: In the examples, purity of reduced coenzyme Q10 and the weight ratio of reduced coenzyme Q10/oxidized coenzyme Q10 were determined by the HFLC analysis specified below. The reduced coenzyme Q10 purity values as determined, however, are by no means indicative of the limit purity value attainable in accordance with the present invention. Likewise, the ratio of the reduced coenzyme Q10 in the weight ratio of reduced coenzyme Q10/oxidized coenzyme Q10 values obtained never indicates the upper limit to that ratio.
Column; SYMMETRY C18 (product of Waters), 250 mm (in length), 4.6 mm (in inside diameter): mobile phase; C2H5OH/CH3OH=4/3 (v/v); detection wavelength; 210 nm; flow rate; 1 ml/min: retention time of reduced coenzyme Q10; 9.1 min: retention time of oxidized coenzyme Q10; 13.3 min.
Using the reduced coenzyme Q10 crystal obtained in Example 1, an ethanol solution containing 5 parts by weight of reduced coenzyme Q10 relative to 100 parts by weight of ethanol was prepared. To this ethanol solution, L-ascorbic acid was added so that 1 part by weight of L-ascorbic acid was contained relative to 100 parts by weight of the solvent (20 parts by weight relative to 100 parts by weight of reduced coenzyme Q10), and the solution was stirred in air at 50° C. […]

[2] = Preliminary investigations on stabilization of reduced coenzyme Q10; type: physicochemical

Row | X: The residual ratio of ascorbic acid [1] [%] | stabilization effect on reduced coenzyme Q10 ([2]; preliminary investigations) | stabilization effect on reduced coenzyme Q10 ([2]; used in combination with polyhydric alcohols having 3 or more OH, such as glycerine) | Molecule
1 | 85.2 | – | – | O=C1O[C@H]([C@@H](O)CO)C(O)=C1O [L-ascorbic acid]
2 | – | does not have the effect | – | Vitamin E [reference compound]
3 | – | has a stabilization effect | very poor | O=C1O[C@H]([C@@H](O)CO)C(O)=C1O [vitamin C]
